# Test results from patent US5876751A, “Antispasmodic and antinflammatory composition and a process for the manufacture thereof” (priority 1996, dated 1999).
# Structures can show the parent of a compound that is named as a salt. Where two headings read alike, the source gives them in different places.
# Experiments:
# rat colon = assay: Inhibition of acetylcholine-induced contraction in isolated distal portion of colon of rat, without and with diclofenac sodium; conditions: for inhibition at 0.01 µg/mL / inhibition at 0.02 µg/mL / inhibition at 0.04 µg/mL / inhibition at 0.08 µg/mL / inhibition at 0.0005 µg/mL / inhibition at 0.001 µg/mL / inhibition at 0.002 µg/mL: Rattus norvegicus, Ach 100 ng/ml; for inhibition at 0.01 µg/mL: pitofenone HCl 10 ng/ml; for inhibition at 0.02 µg/mL: pitofenone HCl 20 ng/ml; for inhibition at 0.04 µg/mL: pitofenone HCl 40 ng/ml; for inhibition at 0.08 µg/mL: pitofenone HCl 80 ng/ml; for inhibition at 0.0005 µg/mL: fenpiverinium bromide 0.5 ng/ml; for inhibition at 0.001 µg/mL: fenpiverinium bromide 1.0 ng/ml; for inhibition at 0.002 µg/mL: fenpiverinium bromide 2.0 ng/ml
# Experimental: In order to see the effect of NSAID on the antispasmodic activity of pitifenone hydrochloride and fenpiverinium bromide an experiment was conducted on standard isolated tissues of experimental animal. The tissue chosen for the experiment was the distal portion of colon of rat. The NSAID selected for the experiment was diclofenac sodium. The percentage inhibition of acetylcholine-induced contraction (at dosage level of 100 ng/m) was studied with varied concentration of pitofenone hydrochloride in the dose range of 10-80 nano gm/ml. […] The data obtained in the experiment is collected in Table -2.
# [1] = in vivo; cited from earlier work
# [2] = cited from earlier work
# [3] = Brogden et al, Drugs 20;24-48 (1980); cited from earlier work
# [4] = before diclofenac Na, read-out: Percentage inhibition of Ach induced contraction, before diclofenac Na
# [5] = with diclofenac sodium 20 μg/ml, read-out: Percentage inhibition of Ach induced contraction, after diclofenac Na
# [6] = with diclofenac sodium (20 μgm/ml), read-out: Percentage inhibition of Ach induced contraction, after diclofenac Na
compound,measurement,setting,value
"COC(=O)c1ccccc1C(=O)c1ccc(OCCN2CCCCC2)cc1 [Pitofenone Hcl, pitofenone hydrochloride]",inhibition at 0.01 µg/mL,rat colon; [4],0%
same,inhibition at 0.01 µg/mL,rat colon; [5],100%
same,inhibition at 0.02 µg/mL,rat colon; [4],0%
same,inhibition at 0.02 µg/mL,rat colon; [5],100%
same,inhibition at 0.04 µg/mL,rat colon; [4],0%
same,inhibition at 0.04 µg/mL,rat colon; [5],100%
same,inhibition at 0.08 µg/mL,rat colon; [4],20.2%
same,inhibition at 0.08 µg/mL,rat colon; [5],100%
Cc1c(N(C)CS(=O)(=O)O)c(=O)n(-c2ccccc2)n1C [Analgin],bone marrow depression,[1],implicated in causing bone marrow depression
O=C(O)Cc1ccccc1Nc1c(Cl)cccc1Cl [diclofenac sodium],side effects vs pethidine intramuscular,"[2]; intramuscular, acute renal colic",fewer side effects
same,effectiveness in the management of acute renal colic vs pethidine intramuscular,[2]; intramuscular,more effective than narcotic analgesic like pethidine intramuscular
O=C(O)Cc1ccccc1Nc1c(Cl)cccc1Cl [diclofenac],potentiation of antispasmodic action of pitofenone hydrochloride and fenpiverinium bromide,rat colon; general statement of findings,potentiates the antispasmodic action of pitofenone hydrochloride and fenpiverinium bromide several times
same,action with pitofenone hydrochloride as an antispasmodic,"rat colon; rat colon, diclofenac sodium 20 μg/ml, pitofenone HCl 10-80 ng/ml",synergistic (potentiating) action
same,action with fenpiverinium bromide as an antispasmodic,"rat colon; rat colon, diclofenac sodium 20 μgm/ml, fenpiverinium bromide 0.5-2 ng/ml",synergistic (potentiating) action
same,reported pharmacological activity,[3],"anti inflammatory activity, analgesic activity and anti pyretic activity"
same,use in painful non-rheumatic syndromes,"[2]; biliary colic (Grossi et al.), acute renal colic (Garcia Alonso et al.)",of use in painful non-rheumatic syndromes
"C[N+]1(CCC(C(N)=O)(c2ccccc2)c2ccccc2)CCCCC1 [Fenpiverinium Bromide, fenpiverinium bromide]",inhibition at 0.0005 µg/mL,rat colon; [4],43.8%
same,inhibition at 0.0005 µg/mL,rat colon; [6],100%
same,inhibition at 0.001 µg/mL,rat colon; [4],78.7%
same,inhibition at 0.001 µg/mL,rat colon; [6],100%
same,inhibition at 0.002 µg/mL,rat colon; [4],100%
same,inhibition at 0.002 µg/mL,rat colon; [6],100%
